Assay results published in ChEMBL document CHEMBL1909046, “DrugMatrix in vitro pharmacology data”.

How the values were obtained:
Vasopressin V1a receptor = Vasopressin V1a receptor (Homo sapiens, UniProt P37288); assay type: cell membranes, Membrane; conditions: hek293; further: in other assays of this panel Not Active means under 50% inhibition at 10 µM
D(4) dopamine receptor = target: T1, D(4) dopamine receptor (Homo sapiens, UniProt P21917); assay: DRUGMATRIX: Dopamine D4.2 radioligand binding (ligand: [3H] Spiperone); assay type: cell membranes, CHO-K1, Membrane; conditions: cho-k1; Not Active = under 50% inhibition at 10 µM
T1 sequence (P21917 whole entry): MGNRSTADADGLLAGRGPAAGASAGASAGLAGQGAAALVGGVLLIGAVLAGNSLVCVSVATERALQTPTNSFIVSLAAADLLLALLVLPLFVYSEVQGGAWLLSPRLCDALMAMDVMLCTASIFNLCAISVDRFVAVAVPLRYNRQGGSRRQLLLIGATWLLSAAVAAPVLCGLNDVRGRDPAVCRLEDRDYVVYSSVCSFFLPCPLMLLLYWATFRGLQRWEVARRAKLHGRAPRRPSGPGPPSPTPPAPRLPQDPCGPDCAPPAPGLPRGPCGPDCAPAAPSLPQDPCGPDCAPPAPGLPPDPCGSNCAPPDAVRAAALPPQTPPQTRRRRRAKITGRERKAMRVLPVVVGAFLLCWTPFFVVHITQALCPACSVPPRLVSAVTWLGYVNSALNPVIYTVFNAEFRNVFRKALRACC

[1] = DRUGMATRIX: Glutamate, Kainate radioligand binding (ligand: [3H] Kainic acid); assay type: cell membranes, Rattus norvegicus, Wistar, Brain, Membrane; conditions: Not Active = under 50% inhibition at 10 µM
Histamine H2 receptor = Histamine H2 receptor (Homo sapiens, UniProt P25021); assay type: cell membranes, CHO-K1, Membrane; conditions: cho-k1; further: in other assays of this panel Not Active means under 50% inhibition at 10 µM
Chain of Histamine H2 receptor (P25021 whole entry): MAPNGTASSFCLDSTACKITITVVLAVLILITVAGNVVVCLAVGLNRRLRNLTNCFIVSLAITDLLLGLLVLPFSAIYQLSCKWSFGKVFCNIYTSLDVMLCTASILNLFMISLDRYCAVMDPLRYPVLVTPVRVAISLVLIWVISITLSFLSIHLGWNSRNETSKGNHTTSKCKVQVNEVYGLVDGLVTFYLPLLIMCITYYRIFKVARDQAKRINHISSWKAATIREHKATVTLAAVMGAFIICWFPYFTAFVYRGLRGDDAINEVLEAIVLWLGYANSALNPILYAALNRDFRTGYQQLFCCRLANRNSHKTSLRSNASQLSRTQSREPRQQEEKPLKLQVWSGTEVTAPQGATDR

Glycine receptor = Glycine receptor (Rattus norvegicus, UniProt P22771+P24524+P07727+P20781); assay type: cell membranes, Wistar, Spinal cord, Membrane; further: in other assays of this panel Not Active means under 50% inhibition at 10 µM
Adenosine receptor A3 = target: T2, Adenosine receptor A3 (Homo sapiens, UniProt P0DMS8); assay type: cell membranes, CHO-K1, Membrane;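 further: radioligand binding assay with AB-MECA serving as the labeled ligand; in other assays of this panel Not Active means under 50% inhibition at 10 µM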
T2 sequence (P0DMS8 whole entry): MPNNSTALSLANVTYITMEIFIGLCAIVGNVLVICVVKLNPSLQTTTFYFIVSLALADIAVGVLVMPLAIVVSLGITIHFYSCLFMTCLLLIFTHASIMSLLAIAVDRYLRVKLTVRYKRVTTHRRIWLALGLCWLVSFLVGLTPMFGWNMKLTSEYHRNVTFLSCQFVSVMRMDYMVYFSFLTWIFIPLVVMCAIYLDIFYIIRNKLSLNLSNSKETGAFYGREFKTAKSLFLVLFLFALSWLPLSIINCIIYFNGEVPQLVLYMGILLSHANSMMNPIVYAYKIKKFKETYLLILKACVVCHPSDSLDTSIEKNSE

Leukotriene C4 synthase = target: T3, Leukotriene C4 synthase (Cavia porcellus, UniProt A6XA80); assay: biochemical; assay type: tissue-based, Lung
T3 sequence (A6XA80 whole entry): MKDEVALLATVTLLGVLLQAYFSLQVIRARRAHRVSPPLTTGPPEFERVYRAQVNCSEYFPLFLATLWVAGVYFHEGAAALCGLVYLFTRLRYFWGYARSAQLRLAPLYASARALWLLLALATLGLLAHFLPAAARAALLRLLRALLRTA

[2] = target: cGMP-specific 3',5'-cyclic phosphodiesterase (Homo sapiens, UniProt O76074); assay: DRUGMATRIX: Phosphodiesterase PDE5 enzyme inhibition (substrate: [3H]cGMP + cGMP); assay type: tissue-based, Platelet; conditions: platelet; Not Active = under 50% inhibition at 10 µM
[3] = DRUGMATRIX: Leukotriene, BLT (LTB4) radioligand binding (ligand: [3H]LTB4); assay type: cell membranes, Membrane; conditions: u-937; Not Active = under 50% inhibition at 10 µM
[4] = target: T4, Alpha-2A adrenergic receptor (Homo sapiens, UniProt P08913); assay type: cell membranes, Sf9, Membrane; conditions: sf9; further: in other assays of this panel Not Active means under 50% inhibition at 10 µM
T4 sequence (P08913 whole entry): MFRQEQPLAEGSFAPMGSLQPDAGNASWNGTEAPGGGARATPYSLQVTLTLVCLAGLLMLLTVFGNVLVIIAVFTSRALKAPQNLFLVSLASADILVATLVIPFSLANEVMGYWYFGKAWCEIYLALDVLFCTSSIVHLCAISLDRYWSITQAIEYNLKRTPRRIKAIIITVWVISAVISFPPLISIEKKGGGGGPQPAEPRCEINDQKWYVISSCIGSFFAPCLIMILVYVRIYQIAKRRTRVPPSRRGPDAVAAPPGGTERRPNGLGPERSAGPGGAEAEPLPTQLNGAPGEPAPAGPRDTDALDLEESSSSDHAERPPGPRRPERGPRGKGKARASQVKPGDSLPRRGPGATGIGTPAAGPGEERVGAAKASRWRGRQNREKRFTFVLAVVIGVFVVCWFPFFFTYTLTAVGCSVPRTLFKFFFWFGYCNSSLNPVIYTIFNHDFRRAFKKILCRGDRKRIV

Chain of Vasopressin V1a receptor (P37288 whole entry): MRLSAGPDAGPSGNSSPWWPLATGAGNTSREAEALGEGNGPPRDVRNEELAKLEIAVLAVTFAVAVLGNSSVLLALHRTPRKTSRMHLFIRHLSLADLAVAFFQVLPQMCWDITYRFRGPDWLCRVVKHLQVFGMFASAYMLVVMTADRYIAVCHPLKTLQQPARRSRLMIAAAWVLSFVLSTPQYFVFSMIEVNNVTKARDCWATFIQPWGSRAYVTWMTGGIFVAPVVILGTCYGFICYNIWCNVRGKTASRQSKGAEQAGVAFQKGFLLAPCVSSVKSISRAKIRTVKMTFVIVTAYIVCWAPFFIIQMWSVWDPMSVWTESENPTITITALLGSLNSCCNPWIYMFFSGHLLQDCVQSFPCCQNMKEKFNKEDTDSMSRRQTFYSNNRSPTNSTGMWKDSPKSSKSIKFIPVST

CC[C@H]1OC(=O)[C@H](C)[C@@H](O[C@H]2C[C@@](C)(OC)[C@@H](O)[C@H](C)O2)[C@H](C)[C@@H](O[C@@H]2O[C@H](C)C[C@H](N(C)C)[C@H]2O)[C@](C)(O)C[C@@H](C)/C(=N\OCOCCOC)[C@H](C)[C@@H](O)[C@]1(C)O [ROXITHROMYCIN]
Not Active: IC50 (Vasopressin V1a receptor) | IC50 (D(4) dopamine receptor) | IC50 [1] | Ki [1] | IC50 (Histamine H2 receptor) | IC50 (Glycine receptor) | IC50 (Adenosine receptor A3; cho-k1) | IC50 (Leukotriene C4 synthase) | IC50 [2] | IC50 [3] | Ki [3] | IC50 [4]

CC(C)[C@H](N)C(=O)OCCOCn1cnc2c(=O)nc(N)[nH]c21 [VALACYCLOVIR]
Not Active: IC50 (Vasopressin V1a receptor) | IC50 (D(4) dopamine receptor) | IC50 [1] | Ki [1] | IC50 (Histamine H2 receptor) | IC50 (Glycine receptor) | IC50 (Adenosine receptor A3; cho-k1) | IC50 (Leukotriene C4 synthase) | IC50 [2] | IC50 [3] | Ki [3] | IC50 [4]

NC(=O)c1ncn([C@@H]2O[C@H](CO)[C@@H](O)[C@H]2O)n1 [RIBAVIRIN]
Not Active: IC50 (Vasopressin V1a receptor) | IC50 (D(4) dopamine receptor) | IC50 [1] | Ki [1] | IC50 (Histamine H2 receptor) | IC50 (Glycine receptor) | IC50 (Adenosine receptor A3; cho-k1) | IC50 (Leukotriene C4 synthase) | IC50 [2] | IC50 [3] | Ki [3] | IC50 [4]

COC(=O)c1ccc(O)cc1 [METHYLPARABEN]
Not Active: IC50 (Vasopressin V1a receptor) | IC50 (D(4) dopamine receptor) | IC50 [1] | Ki [1] | IC50 (Histamine H2 receptor) | IC50 (Glycine receptor) | IC50 (Adenosine receptor A3; cho-k1) | IC50 (Leukotriene C4 synthase) | IC50 [2] | IC50 [3] | Ki [3] | IC50 [4]

COc1ccc(C(CN(C)C)C2(O)CCCCC2)cc1 (stereo not given) [VENLAFAXINE]
Not Active: IC50 (Vasopressin V1a receptor) | IC50 (D(4) dopamine receptor) | IC50 [1] | Ki [1] | IC50 (Histamine H2 receptor) | IC50 (Glycine receptor) | IC50 (Adenosine receptor A3; cho-k1) | IC50 (Leukotriene C4 synthase) | IC50 [2] | IC50 [3] | Ki [3] | IC50 [4]

COS(C)(=O)=O [METHANESULFONIC ACID METHYL ESTER]
Not Active: IC50 (Vasopressin V1a receptor) | IC50 (D(4) dopamine receptor) | IC50 [1] | Ki [1] | IC50 (Histamine H2 receptor) | IC50 (Glycine receptor) | IC50 (Adenosine receptor A3; cho-k1) | IC50 (Leukotriene C4 synthase) | IC50 [2] | IC50 [3] | Ki [3] | IC50 [4]

CC1=C(/C=C/C(C)=C/C=C/C(C)=C\C(=O)O)C(C)(C)CCC1 [ISOTRETINOIN]
2.36 µM: Ki (Adenosine receptor A3; read-out: Ki)
4.17 µM: IC50 (Adenosine receptor A3; read-out: IC50)
Not Active: IC50 (Vasopressin V1a receptor) | IC50 (D(4) dopamine receptor) | IC50 [1] | Ki [1] | IC50 (Histamine H2 receptor) | IC50 (Glycine receptor) | IC50 (Leukotriene C4 synthase) | IC50 [2] | IC50 [3] | Ki [3] | IC50 [4]
